Like-named read-outs stand apart in the source and are kept apart here.
How the values were obtained:
HCT 116 p53^+/+ cells = assay: MTS cytotoxicity assay, HCT 116 p53+/+; type: cell-based, human; settings: for IC50: Homo sapiens, HCT 116 p53^+/+, 72 h incubation, MTS
Excerpt: (§1) M. Rusin from the Maria Sklodowska-Curie Memorial Cancer Centre and Institute of Oncology in Gliwice, Poland. […] G. Kramer-Marek from the Institute of Cancer Research in London, United Kingdom. The human suspension chronic myelogenous leukemia cell line K562 and pancreas ductal adenocarcinoma cell line PANC-1 were purchased from Sigma-Aldrich (St. Louis, MO, USA), while the normal human dermal fibroblasts cell line NHDF were purchased from PromoCell. […] Each medium contained a combination of two antibiotics: penicillin and streptomycin (1% v/v; Gibco). All of these cell lines were grown under standard conditions at 37 °C with a 5% CO2 humidified atmosphere. Moreover, all of the cell lines were routinely tested for mycoplasma using the PCR technique with specific Mycoplasma primers to confirm that there was no contamination.
(§2) The assay was performed following a 72 h incubation with the various concentrations of the tested compounds. Then, 100 µL DMEM without phenol red with 20 µL of the CellTiter 96®AQueous One Solution-MTS (Promega, Promega, WI, USA) was added to each well and incubated for 1 h or 3 h (PANC-1) at 37 °C. The optical densities of the samples were measured at 490 nm using a multi-plate reader (Synergy 4, BioTek, Winooski, VT, USA). […] Each individual compound was tested in triplicate in a single experiment with each experiment being performed three or four times.

U-251 cells [1] = assay: MTS cytotoxicity assay, U-251; type: cell-based, human; settings: for IC50: Homo sapiens, U-251, 72 h incubation, MTS
Excerpt: as §1, §2

MCF-7 cells = assay: MTS cytotoxicity assay, MCF-7; type: cell-based, human; settings: for IC50: Homo sapiens, MCF7, MCF-7, 72 h incubation, MTS; for Selectivity index, MCF-7: NHDF vs MCF-7
Excerpt: as §1, §2

A549 cells [2] = assay: MTS cytotoxicity assay, A549; type: cell-based, human; settings: for IC50: A549, 72 h incubation, MTS; for Selectivity index, A549: NHDF vs A549
Excerpt: as §1, §2

NHDF cells = assay: MTS cytotoxicity assay, normal fibroblasts NHDF; type: cell-based; settings: NHDF normal human fibroblasts, 72 h incubation
Excerpt: as §1, §2

PANC-1 cells = assay: MTS cytotoxicity assay, PANC-1; type: cell-based, human; settings: for IC50: Homo sapiens, PANC-1, 72 h incubation, MTS
Excerpt: as §1, §2

K562 cells = assay: MTS cytotoxicity assay, K562; type: cell-based, human; settings: for IC50: Homo sapiens, K562, 72 h incubation, MTS; for Selectivity index, K562: normal fibroblasts NHDF vs K562
Excerpt: as §1, §2

HCT 116 p53^−/− cells = assay: MTS cytotoxicity assay, HCT 116 p53-/-; type: cell-based, human; settings: for IC50: Homo sapiens, HCT 116 p53^−/−, 72 h incubation, MTS; for Selectivity index, HCT 116 p53 −/−: NHDF vs HCT 116 p53 −/−
Excerpt: as §1, §2

Fyn A = molecular target: T1, Fyn A (Homo sapiens, UniProt P06241); assay: Tyrosine kinase assay (Kinase Selectivity TK-2, ADP-Glo); type: biochemical; settings: read-out: Inhibitory Effect of the Tyrosine Kinase Activity, Fyn A
T1 construct: purchased Promega
T1 sequence (P06241 whole entry): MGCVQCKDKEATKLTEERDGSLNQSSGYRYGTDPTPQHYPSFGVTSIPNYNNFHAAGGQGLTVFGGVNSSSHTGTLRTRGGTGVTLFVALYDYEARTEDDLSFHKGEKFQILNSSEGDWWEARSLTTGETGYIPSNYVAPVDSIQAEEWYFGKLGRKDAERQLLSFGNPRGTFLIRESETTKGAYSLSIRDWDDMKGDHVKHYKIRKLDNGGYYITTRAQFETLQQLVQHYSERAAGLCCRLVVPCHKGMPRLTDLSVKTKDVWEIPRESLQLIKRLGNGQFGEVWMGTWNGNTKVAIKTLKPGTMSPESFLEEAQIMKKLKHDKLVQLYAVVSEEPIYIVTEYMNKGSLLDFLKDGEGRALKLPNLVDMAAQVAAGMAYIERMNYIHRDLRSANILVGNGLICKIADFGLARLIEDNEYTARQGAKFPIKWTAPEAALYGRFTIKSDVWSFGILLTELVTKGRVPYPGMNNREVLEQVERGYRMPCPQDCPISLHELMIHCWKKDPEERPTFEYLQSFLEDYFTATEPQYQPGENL
Method: (§3) Assays using the Kinase Selectivity TK-2 profiling systems and ADP-Glo Kinase Assay (both from Promega) were performed to determine the inhibition of the non-receptor tyrosine kinases. The protocol was previously designed and described by our group in reports. The experiments were performed at least four times. The data are expressed as the percentage of the inhibition activity of tyrosine kinase after treatment with the tested derivatives.

Lck = molecular target: T2, Lck (Homo sapiens, UniProt P06239); assay: as above; type: biochemical; settings: read-out: Inhibitory Effect of the Tyrosine Kinase Activity, Lck
T2 construct: purchased Promega
T2 sequence (P06239 whole entry): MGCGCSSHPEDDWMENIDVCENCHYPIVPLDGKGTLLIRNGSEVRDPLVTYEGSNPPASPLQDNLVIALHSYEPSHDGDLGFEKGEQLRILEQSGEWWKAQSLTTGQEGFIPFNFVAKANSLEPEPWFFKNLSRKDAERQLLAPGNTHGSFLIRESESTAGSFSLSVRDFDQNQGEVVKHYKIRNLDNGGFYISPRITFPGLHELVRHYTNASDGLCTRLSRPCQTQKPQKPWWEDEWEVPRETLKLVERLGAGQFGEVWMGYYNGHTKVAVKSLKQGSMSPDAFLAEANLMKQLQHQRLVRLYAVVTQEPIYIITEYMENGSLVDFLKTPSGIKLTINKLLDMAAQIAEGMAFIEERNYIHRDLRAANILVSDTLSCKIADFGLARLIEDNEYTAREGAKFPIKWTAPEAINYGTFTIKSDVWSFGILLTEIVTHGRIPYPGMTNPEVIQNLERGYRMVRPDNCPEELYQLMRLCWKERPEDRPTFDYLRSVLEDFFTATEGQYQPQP
Method: as §3

Lyn B = molecular target: T3, Lyn B (Homo sapiens, UniProt P07948); assay: as above; type: biochemical; settings: read-out: Inhibitory Effect of the Tyrosine Kinase Activity, Lyn B
T3 construct: purchased Promega
T3 sequence (P07948 1-491 isoform P07948-2): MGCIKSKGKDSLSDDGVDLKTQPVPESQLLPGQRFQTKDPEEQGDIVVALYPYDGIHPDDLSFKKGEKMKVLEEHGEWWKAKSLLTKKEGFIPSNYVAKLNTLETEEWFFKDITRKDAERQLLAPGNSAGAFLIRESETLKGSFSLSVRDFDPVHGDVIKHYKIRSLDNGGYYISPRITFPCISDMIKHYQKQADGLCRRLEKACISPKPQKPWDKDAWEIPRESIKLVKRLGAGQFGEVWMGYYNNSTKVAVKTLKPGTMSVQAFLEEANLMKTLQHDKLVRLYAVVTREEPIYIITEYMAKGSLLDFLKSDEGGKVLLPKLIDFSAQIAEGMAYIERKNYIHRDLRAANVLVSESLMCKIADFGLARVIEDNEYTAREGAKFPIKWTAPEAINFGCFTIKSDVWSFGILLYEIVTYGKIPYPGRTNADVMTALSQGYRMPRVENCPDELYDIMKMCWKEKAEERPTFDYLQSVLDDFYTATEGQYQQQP
Method: as §3

BTK = molecular target: T4, BTK (Homo sapiens, UniProt Q06187); assay: as above; type: biochemical; settings: read-out: Inhibitory Effect of the Tyrosine Kinase Activity, BTK
T4 construct: purchased Promega
T4 sequence (Q06187 whole entry): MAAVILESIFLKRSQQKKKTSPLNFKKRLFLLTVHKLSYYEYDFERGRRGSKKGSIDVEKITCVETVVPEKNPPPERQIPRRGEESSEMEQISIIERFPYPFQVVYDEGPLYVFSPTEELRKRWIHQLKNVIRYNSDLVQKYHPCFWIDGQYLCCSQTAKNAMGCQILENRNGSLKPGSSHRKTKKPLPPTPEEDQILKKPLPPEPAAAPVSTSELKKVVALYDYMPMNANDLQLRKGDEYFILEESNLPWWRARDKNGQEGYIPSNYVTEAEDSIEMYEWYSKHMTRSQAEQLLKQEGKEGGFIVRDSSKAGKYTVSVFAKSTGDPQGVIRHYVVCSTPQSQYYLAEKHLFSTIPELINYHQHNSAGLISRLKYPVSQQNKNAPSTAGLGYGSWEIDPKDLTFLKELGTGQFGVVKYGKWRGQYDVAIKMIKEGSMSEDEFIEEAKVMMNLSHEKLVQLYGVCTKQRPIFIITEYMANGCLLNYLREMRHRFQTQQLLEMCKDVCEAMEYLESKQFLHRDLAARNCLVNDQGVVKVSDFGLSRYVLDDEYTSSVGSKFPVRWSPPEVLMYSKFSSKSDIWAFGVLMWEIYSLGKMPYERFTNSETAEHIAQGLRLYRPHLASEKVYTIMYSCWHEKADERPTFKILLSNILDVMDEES
Method: as §3

Src = molecular target: T5, Src (Homo sapiens, UniProt P12931); assay: as above; type: biochemical; settings: read-out: Inhibitory Effect of the Tyrosine Kinase Activity, Src
T5 construct: purchased Promega
T5 sequence (P12931 whole entry): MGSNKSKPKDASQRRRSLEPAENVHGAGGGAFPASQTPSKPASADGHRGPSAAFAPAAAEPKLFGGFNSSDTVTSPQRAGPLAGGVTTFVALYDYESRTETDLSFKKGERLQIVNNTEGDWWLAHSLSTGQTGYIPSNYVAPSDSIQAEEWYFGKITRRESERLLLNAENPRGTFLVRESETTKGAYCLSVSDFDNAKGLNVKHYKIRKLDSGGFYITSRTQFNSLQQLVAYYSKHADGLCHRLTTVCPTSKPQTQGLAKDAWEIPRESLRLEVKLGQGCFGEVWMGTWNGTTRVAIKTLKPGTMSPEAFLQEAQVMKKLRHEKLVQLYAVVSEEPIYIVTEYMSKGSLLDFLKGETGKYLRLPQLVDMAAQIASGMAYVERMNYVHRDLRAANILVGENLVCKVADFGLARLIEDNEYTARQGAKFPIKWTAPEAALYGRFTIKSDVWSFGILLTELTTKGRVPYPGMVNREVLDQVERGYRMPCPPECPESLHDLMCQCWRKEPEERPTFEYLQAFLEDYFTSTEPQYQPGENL
Method: as §3

CSK = molecular target: T6, CSK (Homo sapiens, UniProt P41240); assay: as above; type: biochemical; settings: read-out: Inhibitory Effect of the Tyrosine Kinase Activity, CSK
T6 construct: purchased Promega
T6 sequence (P41240 whole entry): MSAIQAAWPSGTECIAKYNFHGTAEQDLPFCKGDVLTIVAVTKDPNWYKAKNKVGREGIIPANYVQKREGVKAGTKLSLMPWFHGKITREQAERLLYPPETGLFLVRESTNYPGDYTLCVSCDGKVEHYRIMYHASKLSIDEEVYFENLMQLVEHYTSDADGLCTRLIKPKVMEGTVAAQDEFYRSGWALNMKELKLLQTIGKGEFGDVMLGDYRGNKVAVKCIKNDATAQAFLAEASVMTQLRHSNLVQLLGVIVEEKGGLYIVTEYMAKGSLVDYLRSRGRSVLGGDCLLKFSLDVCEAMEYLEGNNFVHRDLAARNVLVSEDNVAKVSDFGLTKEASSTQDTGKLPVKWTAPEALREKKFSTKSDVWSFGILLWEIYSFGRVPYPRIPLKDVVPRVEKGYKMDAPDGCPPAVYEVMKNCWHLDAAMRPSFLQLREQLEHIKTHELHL
Method: as §3

BRK = molecular target: T7, BRK (Homo sapiens, UniProt Q13882); assay: as above; type: biochemical; settings: read-out: Inhibitory Effect of the Tyrosine Kinase Activity, BRK
T7 construct: purchased Promega
T7 sequence (Q13882 whole entry): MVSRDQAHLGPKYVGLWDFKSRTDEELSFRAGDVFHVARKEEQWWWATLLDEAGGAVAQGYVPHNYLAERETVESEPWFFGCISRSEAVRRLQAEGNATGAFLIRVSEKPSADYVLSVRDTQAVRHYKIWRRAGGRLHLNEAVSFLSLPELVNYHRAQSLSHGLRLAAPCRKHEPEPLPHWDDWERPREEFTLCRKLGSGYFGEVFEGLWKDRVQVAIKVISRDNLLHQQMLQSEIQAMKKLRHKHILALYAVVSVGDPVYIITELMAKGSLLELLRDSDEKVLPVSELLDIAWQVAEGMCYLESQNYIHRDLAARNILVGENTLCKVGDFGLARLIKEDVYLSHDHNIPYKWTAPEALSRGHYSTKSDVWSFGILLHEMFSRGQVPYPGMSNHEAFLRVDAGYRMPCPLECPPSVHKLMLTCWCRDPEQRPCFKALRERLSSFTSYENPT
Method: as §3

ABL1 = molecular target: T8, ABL1 (Homo sapiens, UniProt P00519); assay: as above; type: biochemical; settings: read-out: Inhibitory Effect of the Tyrosine Kinase Activity, ABL1
T8 construct: purchased Promega
T8 sequence (P00519 whole entry): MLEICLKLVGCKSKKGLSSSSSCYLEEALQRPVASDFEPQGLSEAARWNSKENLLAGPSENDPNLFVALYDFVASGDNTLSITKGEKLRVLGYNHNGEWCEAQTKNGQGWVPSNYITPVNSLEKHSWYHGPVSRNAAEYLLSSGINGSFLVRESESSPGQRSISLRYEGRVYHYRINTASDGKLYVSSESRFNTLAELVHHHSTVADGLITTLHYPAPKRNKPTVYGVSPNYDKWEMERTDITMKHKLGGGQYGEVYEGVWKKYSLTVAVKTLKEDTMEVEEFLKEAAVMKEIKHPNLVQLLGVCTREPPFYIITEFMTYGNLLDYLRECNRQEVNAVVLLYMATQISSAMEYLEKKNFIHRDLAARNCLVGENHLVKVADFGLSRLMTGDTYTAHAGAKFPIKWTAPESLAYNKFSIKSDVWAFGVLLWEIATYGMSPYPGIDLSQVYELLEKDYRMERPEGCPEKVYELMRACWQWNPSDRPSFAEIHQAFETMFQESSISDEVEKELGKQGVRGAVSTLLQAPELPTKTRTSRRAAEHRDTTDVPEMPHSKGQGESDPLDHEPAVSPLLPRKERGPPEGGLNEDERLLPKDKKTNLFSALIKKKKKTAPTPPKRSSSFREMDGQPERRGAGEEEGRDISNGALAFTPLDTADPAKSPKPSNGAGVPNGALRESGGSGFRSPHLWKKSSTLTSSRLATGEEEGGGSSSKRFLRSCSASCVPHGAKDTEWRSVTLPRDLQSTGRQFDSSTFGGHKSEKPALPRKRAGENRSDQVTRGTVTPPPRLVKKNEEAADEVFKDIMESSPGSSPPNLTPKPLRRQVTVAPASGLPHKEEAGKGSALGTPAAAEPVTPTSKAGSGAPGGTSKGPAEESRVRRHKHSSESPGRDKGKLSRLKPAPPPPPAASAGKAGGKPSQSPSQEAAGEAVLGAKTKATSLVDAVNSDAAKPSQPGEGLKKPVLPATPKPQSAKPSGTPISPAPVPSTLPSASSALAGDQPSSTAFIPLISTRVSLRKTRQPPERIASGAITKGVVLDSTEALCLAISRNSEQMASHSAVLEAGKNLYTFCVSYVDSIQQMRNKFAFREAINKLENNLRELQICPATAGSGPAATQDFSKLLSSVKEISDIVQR
Method: as §3

U-251 cells [3] = assay: Cell cycle assay (Muse Cell-Cycle Kit), U-251; type: cell-based, human; settings: U-251, 0.13 µM to 2 µM, 24 h; 32.3% in untreated cells
Method: The K562, U-251 and NHDF cells were seeded in 3 cm Petri dishes (Nunc) at a density of 250,000 cells per well and incubated under standard conditions at 37 °C for 24 h. […] After a 24 h treatment, the assays were performed using a Muse Cell-Cycle Kit (Millipore, Burlington, MA, USA) according to the supplier’s instructions. Briefly, the cells were collected, washed with cold PBS and centrifuged at 300 g for 5 min. Afterwards, the cells were fixed in ice cold 70% ethanol and stored at −20 °C overnight. The next day, the cells were washed with cold PBS, centrifuged and resuspended in 200 μL of the Muse™ Cell Cycle Reagent. The samples were incubated for 30 min at room temperature in the dark. After staining, the cellular subpopulation values in the individual cell cycle phases were estimated using a cell cycle analysis using a Muse Cell Analyzer (Millipore). The experiments were performed at least four times.

A549 cells [4] = tested on: A549 cells; parameters: method as in PMID 24530495; settings: cited from earlier work

| SMILES | IC50 (HCT 116 p53^+/+ cells) [µM] | IC50 (U-251 cells [1]) [µM] | IC50 (MCF-7 cells) [µM] | IC50 (A549 cells [2]; Homo sapiens, A549, 72 h) [µM] | Selectivity index, A549 (A549 cells [2]) | IC50 (NHDF cells) [µM] | IC50 (PANC-1 cells) [µM] | IC50 (K562 cells) [µM] | Selectivity index, K562 (K562 cells) | IC50 (HCT 116 p53^−/− cells) [µM] | inhibition at 0.5 µM (Fyn A) [%] | inhibition at 0.5 µM (Lck) [%] | inhibition at 0.5 µM (Lyn B) [%] | inhibition at 0.5 µM (BTK) [%] | inhibition at 0.5 µM (Src) [%] | inhibition at 0.5 µM (CSK) [%] | inhibition at 0.5 µM (BRK) [%] | inhibition at 0.5 µM (ABL1) [%] | Selectivity index, MCF-7 (MCF-7 cells) | Selectivity index, HCT 116 p53 −/− (HCT 116 p53^−/− cells) | other results |
| --- | --- | --- | --- | --- | --- | --- | --- | --- | --- | --- | --- | --- | --- | --- | --- | --- | --- | --- | --- | --- | --- |
| COc1ccc(/C=C/c2nc(OS(=O)(=O)c3ccc(C)cc3)c3ccccc3n2)cc1 [BS5, 2-((E)-2-(4-methoxyphenyl)ethenyl)quinazolin-4-yl 4-methylbenzenesulfonate] | > 25 | > 25 | > 25 | > 25 | 1.00 | > 25 | > 25 | 10.2 ± 0.819 | 2.45 | > 25 | 0 | 11.2 | 0 | 8.59 | 0 | 20.1 | 20.2 | 0 | – | – | – |
| CC(=O)O[C@H]1C(=O)[C@@]2(C)[C@H]([C@H](OC(=O)c3ccccc3)[C@]3(O)C[C@H](OC(=O)[C@H](O)[C@@H](NC(=O)c4ccccc4)c4ccccc4)C(C)=C1C3(C)C)[C@]1(OC(C)=O)CO[C@@H]1C[C@@H]2O [paclitaxel, reference compound] | – | – | – | – | – | – | – | – | – | – | – | – | – | – | – | – | – | – | – | – | Fraction of cells in the G2/M phase (U-251 cells [3]): about 69.9% |
| COc1c(NS(=O)(=O)c2ccc(C)cc2)cc(-c2ccc3ncnc(N4CCOCC4)c3c2)cc1C(N)=O [IV] | – | – | – | – | – | – | – | – | – | – | – | – | – | – | – | – | – | – | – | – | IC50 (A549 cells [4]): 2.18 µM |
| COc1ccc(/C=C/c2nc(NCCCN(C)C)c3ccccc3n2)cc1 [CP-31398, reference compound] | 18.6 ± 0.92 | 18.8 ± 1.65 | 27 ± 2.1 | – | – | 12.3 ± 0.54 | > 25 | 3.09 ± 0.36 | – | 26.3 ± 1.41 | – | – | – | – | – | – | – | – | – | – | IC50 (A549 cells [2]; Homo sapiens): > 25 µM |
| COc1ccccc1/C=C/c1nc(OS(=O)(=O)c2ccc(C)cc2)c2ccc(Cl)cc2n1 [BS3, 7-chloro-2-((E)-2-(2-methoxyphenyl)ethenyl)quinazolin-4-yl 4-methylbenzenesulfonate] | 0.363 ± 0.028 | 1.76 ± 0.388 | 4.6 ± 1.02 | 7.65 | 1.23 | 9.42 ± 1.65 | 0.097 ± 0.03 | 0.078 ± 0.027 | 120.71 | 0.239 ± 0.03 | 34.1 | 42.6 | 0 | 30.7 | 2.73 | 0 | 26.5 | 0 | 2.05 | 39.39 | Selectivity index, HCT 116 p53+/+ (HCT 116 p53^+/+ cells; NHDF vs HCT 116 p53+/+): 25.94; Selectivity index, U-251 (U-251 cells [1]; NHDF vs U-251): 5.36; IC50 (A549 cells [2]): 7.65 ± 0.987 µM; Selectivity index, PANC-1 (PANC-1 cells; NHDF vs PANC-1): 97.06 |
| COc1ccc(/C=C/c2nc(OS(=O)(=O)c3ccc(C)cc3)c3ccccc3n2)c(OC)c1 [BS6, 2-((E)-2-(2,4-dimethoxyphenyl)ethenyl)quinazolin-4-yl 4-methylbenzenesulfonate] | > 25 | > 25 | 9.79 ± 1.23 | > 25 | 1.00 | > 25 | > 25 | 2.7 ± 0.519 | 9.26 | 21.7 ± 1.19 | 62.6 | 37.3 | 0 | 17.9 | 0 | 21.1 | 0 | 0 | 2.55 | 1.15 | – |
